Assay results published in ChEMBL document CHEMBL3885881, “DrugMatrix”.

Organism: Rattus norvegicus
Assay: DrugMatrix - Regimen: Daily Repeat
Assay type: toxicity, organism-based, Sprague-Dawley
Set-up: regimen Daily Repeat, gender Male, age 6-8 weeks
Conditions: in vivo, iv, vehicle 100 % SALINE; for ABSOLUTE BASOPHIL / ABSOLUTE EOSINOPHIL / ABSOLUTE LYMPHOCYTE / ABSOLUTE MONOCYTE / ABSOLUTE SEGMENTED NEUTROPHIL / BASOPHIL / EOSINOPHIL / ERYTHROCYTE COUNT / HEMATOCRIT / HEMOGLOBIN / LYMPHOCYTE / MEAN CORPUSCULAR HEMOGLOBIN / MEAN CORPUSCULAR HEMOGLOBIN CONCENTRATION / MONOCYTE / NEUTROPHIL / NUCLEATED RED BLOOD CELLS / PLATELET COUNT: tissue Blood; for ALANINE AMINOTRANSFERASE / ALBUMIN / ALKALINE PHOSPHATASE / ASPARTATE AMINOTRANSFERASE / BLOOD UREA NITROGEN / CARBON DIOXIDE / CHLORIDE / CHOLESTEROL / CREATINE PHOSPHOKINASE / CREATININE / GLUCOSE / LIPASE / PHOSPHORUS / POTASSIUM / SODIUM / TOTAL BILIRUBIN / TOTAL PROTEIN / URIC ACID: tissue Plasma
[1] = 0 mg/kg, 72 h, dose level Control, time 3 day
[2] = 0 mg/kg, 120 h, dose level Control, time 5 day
[3] = 5 mg/kg, 72 h, dose level High, time 3 day
[4] = 5 mg/kg, 120 h, dose level High, time 5 day
[5] = […], 72 h, dose 1.5 mg/Kg, dose level Low, time 3 day
[6] = […], 120 h, dose 1.5 mg/Kg, dose level Low, time 5 day

## CCc1c2c(nc3ccc(OC(=O)N4CCC(N5CCCCC5)CC4)cc13)-c1cc3c(c(=O)n1C2)COC(=O)[C@]3(O)CC [IRINOTECAN]
[1]
  ABSOLUTE BASOPHIL: 0 CELLS/uL
  ABSOLUTE EOSINOPHIL: 23.17 CELLS/uL
  ABSOLUTE LYMPHOCYTE: 12448.83 CELLS/uL
  ABSOLUTE MONOCYTE: 259.5 CELLS/uL
  ABSOLUTE SEGMENTED NEUTROPHIL: 1635.17 CELLS/uL
  BASOPHIL: 0%
  EOSINOPHIL: 0.17%
  ERYTHROCYTE COUNT: 5.35 x10E6/uL
  HEMATOCRIT: 34.85%
  HEMOGLOBIN: 13.72 G/DL
  LYMPHOCYTE: 86.5%
  MEAN CORPUSCULAR HEMOGLOBIN: 25.67 pg
  MEAN CORPUSCULAR HEMOGLOBIN CONCENTRATION: 39.38 G/DL
  MONOCYTE: 1.83%
  NEUTROPHIL: 11.5%
  NUCLEATED RED BLOOD CELLS: 0 /100WBC
  PLATELET COUNT: 1248.67 x10E3/uL
  ALANINE AMINOTRANSFERASE: 56.5 u/L
  ALBUMIN: 4.27 G/DL
  ALKALINE PHOSPHATASE: 334 u/L
  ASPARTATE AMINOTRANSFERASE: 85.5 u/L
  BLOOD UREA NITROGEN: 16.33 mg/dL
  CARBON DIOXIDE: 26.5 mmol/L
  CHLORIDE: 100.17 MEQ/L
  CHOLESTEROL: 70.33 mg/dL
  CREATINE PHOSPHOKINASE: 339.5 u/L
  CREATININE: 0.18 mg/dL
  GLUCOSE: 155.17 mg/dL
  LIPASE: 9.5 u/L
  PHOSPHORUS: 13.55 mg/dL
  POTASSIUM: 6.68 MEQ/L
  SODIUM: 143.87 MEQ/L
  TOTAL BILIRUBIN: 0.2 mg/dL
  TOTAL PROTEIN: 5.98 G/DL
  URIC ACID: 1.53 mg/dL
[2]
  ABSOLUTE BASOPHIL: 0 CELLS/uL
  ABSOLUTE EOSINOPHIL: 16.17 CELLS/uL
  ABSOLUTE LYMPHOCYTE: 10653.67 CELLS/uL
  ABSOLUTE MONOCYTE: 17.17 CELLS/uL
  ABSOLUTE SEGMENTED NEUTROPHIL: 746.33 CELLS/uL
  BASOPHIL: 0%
  EOSINOPHIL: 0.17%
  ERYTHROCYTE COUNT: 5.88 x10E6/uL
  HEMATOCRIT: 36.68%
  HEMOGLOBIN: 14.6 G/DL
  LYMPHOCYTE: 91.83%
  MEAN CORPUSCULAR HEMOGLOBIN: 24.85 pg
  MEAN CORPUSCULAR HEMOGLOBIN CONCENTRATION: 39.8 G/DL
  MONOCYTE: 0.17%
  NEUTROPHIL: 7.83%
  NUCLEATED RED BLOOD CELLS: 0 /100WBC
  PLATELET COUNT: 1219.5 x10E3/uL
  ALANINE AMINOTRANSFERASE: 45.5 u/L
  ALBUMIN: 4.23 G/DL
  ALKALINE PHOSPHATASE: 330.17 u/L
  ASPARTATE AMINOTRANSFERASE: 93.33 u/L
  BLOOD UREA NITROGEN: 18 mg/dL
  CARBON DIOXIDE: 25.5 mmol/L
  CHLORIDE: 96.33 MEQ/L
  CHOLESTEROL: 73.5 mg/dL
  CREATINE PHOSPHOKINASE: 434 u/L
  CREATININE: 0.2 mg/dL
  GLUCOSE: 148.83 mg/dL
  LIPASE: 10 u/L
  PHOSPHORUS: 12.63 mg/dL
  POTASSIUM: 6.66 MEQ/L
  SODIUM: 139.78 MEQ/L
  TOTAL BILIRUBIN: 0.15 mg/dL
  TOTAL PROTEIN: 6.1 G/DL
  URIC ACID: 2.02 mg/dL
[3]
  ABSOLUTE BASOPHIL: 0 CELLS/uL
  ABSOLUTE EOSINOPHIL: 80.67 CELLS/uL
  ABSOLUTE LYMPHOCYTE: 9024 CELLS/uL
  ABSOLUTE MONOCYTE: 170 CELLS/uL
  ABSOLUTE SEGMENTED NEUTROPHIL: 658.67 CELLS/uL
  BASOPHIL: 0%
  EOSINOPHIL: 0.67%
  ERYTHROCYTE COUNT: 5.4 x10E6/uL
  HEMATOCRIT: 34.93%
  HEMOGLOBIN: 13.9 G/DL
  LYMPHOCYTE: 90.67%
  MEAN CORPUSCULAR HEMOGLOBIN: 25.73 pg
  MEAN CORPUSCULAR HEMOGLOBIN CONCENTRATION: 39.77 G/DL
  MONOCYTE: 1.67%
  NEUTROPHIL: 7%
  NUCLEATED RED BLOOD CELLS: 0 /100WBC
  PLATELET COUNT: 1386.67 x10E3/uL
  ALANINE AMINOTRANSFERASE: 49 u/L
  ALBUMIN: 4.27 G/DL
  ALKALINE PHOSPHATASE: 402.67 u/L
  ASPARTATE AMINOTRANSFERASE: 93 u/L
  BLOOD UREA NITROGEN: 14.67 mg/dL
  CARBON DIOXIDE: 26.67 mmol/L
  CHLORIDE: 102.67 MEQ/L
  CHOLESTEROL: 65 mg/dL
  CREATINE PHOSPHOKINASE: 421.33 u/L
  CREATININE: 0.18 mg/dL
  GLUCOSE: 152.67 mg/dL
  LIPASE: 10 u/L
  PHOSPHORUS: 14.3 mg/dL
  POTASSIUM: 6.6 MEQ/L
  SODIUM: 145.83 MEQ/L
  TOTAL BILIRUBIN: 0.17 mg/dL
  TOTAL PROTEIN: 5.8 G/DL
  URIC ACID: 1.77 mg/dL
[4]
  ABSOLUTE BASOPHIL: 0 CELLS/uL
  ABSOLUTE EOSINOPHIL: 0 CELLS/uL
  ABSOLUTE LYMPHOCYTE: 10356 CELLS/uL
  ABSOLUTE MONOCYTE: 74 CELLS/uL
  ABSOLUTE SEGMENTED NEUTROPHIL: 470 CELLS/uL
  BASOPHIL: 0%
  EOSINOPHIL: 0%
  ERYTHROCYTE COUNT: 6.32 x10E6/uL
  HEMATOCRIT: 37.73%
  HEMOGLOBIN: 15.1 G/DL
  LYMPHOCYTE: 95%
  MEAN CORPUSCULAR HEMOGLOBIN: 23.93 pg
  MEAN CORPUSCULAR HEMOGLOBIN CONCENTRATION: 40.07 G/DL
  MONOCYTE: 0.67%
  NEUTROPHIL: 4.33%
  NUCLEATED RED BLOOD CELLS: 0 /100WBC
  PLATELET COUNT: 1232.33 x10E3/uL
  ALANINE AMINOTRANSFERASE: 38 u/L
  ALBUMIN: 4.37 G/DL
  ALKALINE PHOSPHATASE: 299.33 u/L
  ASPARTATE AMINOTRANSFERASE: 100.33 u/L
  BLOOD UREA NITROGEN: 21.33 mg/dL
  CARBON DIOXIDE: 22.67 mmol/L
  CHLORIDE: 100 MEQ/L
  CHOLESTEROL: 65 mg/dL
  CREATINE PHOSPHOKINASE: 991 u/L
  CREATININE: 0.24 mg/dL
  GLUCOSE: 171.67 mg/dL
  LIPASE: 9.33 u/L
  PHOSPHORUS: 12.93 mg/dL
  POTASSIUM: 6.75 MEQ/L
  SODIUM: 142.97 MEQ/L
  TOTAL BILIRUBIN: 0.13 mg/dL
  TOTAL PROTEIN: 6.67 G/DL
  URIC ACID: 2.8 mg/dL
[5]
  ABSOLUTE BASOPHIL: 0 CELLS/uL
  ABSOLUTE EOSINOPHIL: 215 CELLS/uL
  ABSOLUTE LYMPHOCYTE: 8779 CELLS/uL
  ABSOLUTE MONOCYTE: 139.33 CELLS/uL
  ABSOLUTE SEGMENTED NEUTROPHIL: 933.33 CELLS/uL
  BASOPHIL: 0%
  EOSINOPHIL: 2%
  ERYTHROCYTE COUNT: 5.76 x10E6/uL
  HEMATOCRIT: 36.73%
  HEMOGLOBIN: 14.23 G/DL
  LYMPHOCYTE: 87.33%
  MEAN CORPUSCULAR HEMOGLOBIN: 24.73 pg
  MEAN CORPUSCULAR HEMOGLOBIN CONCENTRATION: 38.77 G/DL
  MONOCYTE: 1.33%
  NEUTROPHIL: 9.33%
  NUCLEATED RED BLOOD CELLS: 0 /100WBC
  PLATELET COUNT: 1185.67 x10E3/uL
  ALANINE AMINOTRANSFERASE: 45.33 u/L
  ALBUMIN: 4.23 G/DL
  ALKALINE PHOSPHATASE: 367.67 u/L
  ASPARTATE AMINOTRANSFERASE: 79.33 u/L
  BLOOD UREA NITROGEN: 14.67 mg/dL
  CARBON DIOXIDE: 27 mmol/L
  CHLORIDE: 99 MEQ/L
  CHOLESTEROL: 76.33 mg/dL
  CREATINE PHOSPHOKINASE: 268.33 u/L
  CREATININE: 0.18 mg/dL
  GLUCOSE: 157 mg/dL
  LIPASE: 9.67 u/L
  PHOSPHORUS: 15.07 mg/dL
  POTASSIUM: 6.67 MEQ/L
  SODIUM: 143.87 MEQ/L
  TOTAL BILIRUBIN: 0.17 mg/dL
  URIC ACID: 1.7 mg/dL
[6]
  ABSOLUTE BASOPHIL: 0 CELLS/uL
  ABSOLUTE EOSINOPHIL: 58.33 CELLS/uL
  ABSOLUTE LYMPHOCYTE: 15491.67 CELLS/uL
  ABSOLUTE MONOCYTE: 116.67 CELLS/uL
  ABSOLUTE SEGMENTED NEUTROPHIL: 2000 CELLS/uL
  BASOPHIL: 0%
  EOSINOPHIL: 0.33%
  HEMATOCRIT: 36.13%
  HEMOGLOBIN: 14.3 G/DL
  LYMPHOCYTE: 87.67%
  MEAN CORPUSCULAR HEMOGLOBIN: 24 pg
  MEAN CORPUSCULAR HEMOGLOBIN CONCENTRATION: 39.57 G/DL
  MONOCYTE: 0.67%
  NEUTROPHIL: 11.33%
  NUCLEATED RED BLOOD CELLS: 0 /100WBC
  PLATELET COUNT: 1288 x10E3/uL
  ALANINE AMINOTRANSFERASE: 54 u/L
  ALBUMIN: 4.03 G/DL
  ALKALINE PHOSPHATASE: 415.33 u/L
  ASPARTATE AMINOTRANSFERASE: 101 u/L
  BLOOD UREA NITROGEN: 15.67 mg/dL
  CARBON DIOXIDE: 26 mmol/L
  CHLORIDE: 101.33 MEQ/L
  CHOLESTEROL: 68.67 mg/dL
  CREATINE PHOSPHOKINASE: 578.67 u/L
  CREATININE: 0.21 mg/dL
  GLUCOSE: 151 mg/dL
  LIPASE: 9.67 u/L
  PHOSPHORUS: 13.47 mg/dL
  POTASSIUM: 6.54 MEQ/L
  SODIUM: 146.17 MEQ/L
  TOTAL BILIRUBIN: 0.13 mg/dL
  TOTAL PROTEIN: 5.93 G/DL
  URIC ACID: 1.8 mg/dL
